Results taken from patent publication US4346076A, “Bis-tetrazoylmethyl substituted cephalosporin antibiotics” (Eli Lilly and Company, priority 1980, dated 1982).
In brackets after ≈: the same amount, converted by molar mass. Where two headings read alike, the source gives them in different places.

How the values were obtained:
Test in all cases: in vitro antibacterial activity, agar dilution
Assay type in all cases: cell-based
Streptococcus Group D = settings: read-out: Minimum Inhibitory Concentration
Source text: (§1) The bis-tetrazol-thiomethyl substituted cephalosporins of this invention are broad spectrum antibiotics which inhibit the growth of both gram positive and gram negative microorganisms which are pathogenic to man and animals. […] The following Table 2 lists the minimum inhibitory concentrations of representative compounds of the invention.
(§2) The data in TABLE 2 were obtained in the agar dilution test method using Mueller-Hinton agar containing two percent Supplement C (Difco). Serial two-fold dilutions were run with the highest concentration on test at 128 mcg/ml.

Enterobacter cloacae = system: Enterobacter cloacae
Source text: as §1, §2

Proteus inconstans = settings: Providencia alcalifaciens; strain PR33; read-out: Minimum Inhibitory Concentration
Source text: as §1, §2

Salmonella sp. = system: Salmonella sp.
Source text: as §1, §2

Pseudomonas aeruginosa = system: Pseudomonas aeruginosa
Source text: as §1, §2

Streptococcus Group A = settings: strain C203; read-out: Minimum Inhibitory Concentration
Source text: as §1, §2

[1] = system: Staphylococcus epidermidis
Source text: as §1, §2

Citrobacter freundii = settings: strain CF17, read-out: Minimum Inhibitory Concentration
Source text: as §1, §2

Proteus rettgeri = settings: Providencia rettgeri, read-out: Minimum Inhibitory Concentration
Source text: as §1, §2

Enterobacter aerogenes = settings: for MIC: Klebsiella aerogenes, read-out: Minimum Inhibitory Concentration
Source text: as §1, §2

Proteus morganii = settings: Morganella morganii, read-out: Minimum Inhibitory Concentration
Source text: as §1, §2

Klebsiella sp. = system: Klebsiella sp.
Source text: as §1, §2

Streptococcus pneumoniae = settings: strain PARK, read-out: Minimum Inhibitory Concentration
Source text: as §1, §2

Shigella sonnei = settings: strain N9, read-out: Minimum Inhibitory Concentration
Source text: as §1, §2

Staphylococcus aureus = system: Staphylococcus aureus
Source text: as §1, §2

Haemophilus influenzae = settings: for MIC: Haemophilus influenzae, read-out: Minimum Inhibitory Concentration
Source text: as §1, §2

[2] = system: Bordetella bronchoseptica; settings: strain 16, read-out: Minimum Inhibitory Concentration
Source text: as §1, §2

Escherichia coli = system: Escherichia coli
Source text: as §1, §2

Serratia marcescens = system: Serratia marcescens
Source text: as §1, §2

[3] = strain 265A, read-out: Minimum Inhibitory Concentration
[4] = strain EB5, read-out: Minimum Inhibitory Concentration
[5] = strain 1335, read-out: Minimum Inhibitory Concentration
[6] = strain X514, read-out: Minimum Inhibitory Concentration
[7] = strain Ps18, read-out: Minimum Inhibitory Concentration
[8] = strain X239, read-out: Minimum Inhibitory Concentration
[9] = strain X528, read-out: Minimum Inhibitory Concentration
[10] = strain EPI1, read-out: Minimum Inhibitory Concentration
[11] = strain EPI2, read-out: Minimum Inhibitory Concentration
[12] = strain KAE, read-out: Minimum Inhibitory Concentration
[13] = strain X26, read-out: Minimum Inhibitory Concentration
[14] = read-out: Minimum Inhibitory Concentration
[15] = strain V41, read-out: Minimum Inhibitory Concentration
[16] = strain X1.1, read-out: Minimum Inhibitory Concentration
[17] = strain X400, read-out: Minimum Inhibitory Concentration
[18] = strain EC14, read-out: Minimum Inhibitory Concentration
[19] = strain N10, read-out: Minimum Inhibitory Concentration
[20] = strain TEM, read-out: Minimum Inhibitory Concentration
[21] = strain SE3, read-out: Minimum Inhibitory Concentration
[22] = strain X93, read-out: Minimum Inhibitory Concentration

| SMILES | MIC (Streptococcus Group D; strain 9960) [µg/mL] | MIC (Streptococcus Group D; strain X66) [µg/mL] | MIC (Enterobacter cloacae; [3]) [µg/mL] | MIC (Enterobacter cloacae; [4]) [µg/mL] | MIC (Proteus inconstans) [µg/mL] | MIC (Salmonella sp.; [5]) [µg/mL] | MIC (Salmonella sp.; [6]) [µg/mL] | MIC (Pseudomonas aeruginosa; [7]) [µg/mL] | MIC (Pseudomonas aeruginosa; [8]) [µg/mL] | MIC (Pseudomonas aeruginosa; [9]) [µg/mL] | MIC (Streptococcus Group A) [µg/mL] | MIC [1, 10] [µg/mL] | MIC [1, 11] [µg/mL] | MIC (Citrobacter freundii) [µg/mL] | MIC (Proteus rettgeri; strain C24) [µg/mL] | MIC (Proteus rettgeri; strain PR7) [µg/mL] | MIC (Enterobacter aerogenes; strain EB17) [µg/mL] | MIC (Klebsiella sp.; [12]) [µg/mL] | MIC (Klebsiella sp.; [13]) [µg/mL] | MIC (Streptococcus pneumoniae) [µg/mL] | other results |
| --- | --- | --- | --- | --- | --- | --- | --- | --- | --- | --- | --- | --- | --- | --- | --- | --- | --- | --- | --- | --- | --- |
| CO[C@@]1(NC(=O)Cc2cccs2)C(=O)N2C(C(=O)O)=C(CSc3nnnn3Cc3nnn[nH]3)CS[C@@H]21 [A, 7-(2-thienylacetamido)-7-methoxy-3-[1-(1H-tetrazole-5-ylmethyl)-1H-tetrazole-5-ylthiomethyl]-3-cephem-4-carboxylic acid] | > 128 | 64 (≈ 116 µM) | > 128 | > 128 | 4 (≈ 7.26 µM) | 2 (≈ 3.63 µM) | 1 (≈ 1.82 µM) | > 128 | > 128 | > 128 | 0.5 (≈ 0.908 µM) | 16 (≈ 29.1 µM) | 8 (≈ 14.5 µM) | > 128 | 1 (≈ 1.82 µM) | 4 (≈ 7.26 µM) | > 128 | 4 (≈ 7.26 µM) | 1 (≈ 1.82 µM) | 4 (≈ 7.26 µM) | MIC (Enterobacter aerogenes; strain C32): > 128 µg/mL; MIC (Enterobacter aerogenes; strain X68): 4 µg/mL (≈ 7.26 µM); MIC (Proteus morganii; strain PR15): 64 µg/mL (≈ 116 µM); MIC (Shigella sonnei): 8 µg/mL (≈ 14.5 µM); MIC (Staphylococcus aureus; [14]): 8 µg/mL (≈ 14.5 µM); MIC (Staphylococcus aureus; [15]): 2 µg/mL (≈ 3.63 µM); MIC (Staphylococcus aureus; [16]): 2 µg/mL (≈ 3.63 µM); MIC (Staphylococcus aureus; [17]): 16 µg/mL (≈ 29.1 µM); MIC (Haemophilus influenzae; strain 76, resistant strain): 0.25 µg/mL (≈ 0.454 µM); MIC (Haemophilus influenzae; strain C.L., sensitive strain): 0.25 µg/mL (≈ 0.454 µM); MIC [2]: > 128 µg/mL; MIC (Escherichia coli; [18]): 4 µg/mL (≈ 7.26 µM); MIC (Escherichia coli; [19]): 8 µg/mL (≈ 14.5 µM); MIC (Escherichia coli; [20]): 4 µg/mL (≈ 7.26 µM); MIC (Serratia marcescens; [21]): 64 µg/mL (≈ 116 µM); MIC (Serratia marcescens; [22]): 16 µg/mL (≈ 29.1 µM) |
| O=CO[C@@H](C(=O)N[C@@H]1C(=O)N2C(C(=O)O)=C(CSc3nnnn3Cc3nnn[nH]3)CS[C@H]12)c1ccccc1 [C] | 128 (≈ 229 µM) | > 128 | > 128 | 128 (≈ 229 µM) | 2 (≈ 3.58 µM) | 2 (≈ 3.58 µM) | 1 (≈ 1.79 µM) | > 128 | > 128 | > 128 | 0.5 (≈ 0.895 µM) | 8 (≈ 14.3 µM) | 32 (≈ 57.3 µM) | > 128 | 0.5 (≈ 0.895 µM) | 4 (≈ 7.16 µM) | 2 (≈ 3.58 µM) | > 128 | 2 (≈ 3.58 µM) | 0.25 (≈ 0.448 µM) | MIC (Enterobacter aerogenes; strain C32): 4 µg/mL (≈ 7.16 µM); MIC (Enterobacter aerogenes; strain X68): 0.25 µg/mL (≈ 0.448 µM); MIC (Proteus morganii; strain PR15): 2 µg/mL (≈ 3.58 µM); MIC (Shigella sonnei): 1 µg/mL (≈ 1.79 µM); MIC (Staphylococcus aureus; [14]): 16 µg/mL (≈ 28.6 µM); MIC (Staphylococcus aureus; [15]): 8 µg/mL (≈ 14.3 µM); MIC (Staphylococcus aureus; [16]): 1 µg/mL (≈ 1.79 µM); MIC (Staphylococcus aureus; [17]): 128 µg/mL (≈ 229 µM); MIC (Haemophilus influenzae; strain 251, resistant strain): 4 µg/mL (≈ 7.16 µM); MIC (Haemophilus influenzae; strain Brun, sensitive strain): 4 µg/mL (≈ 7.16 µM); MIC [2]: 16 µg/mL (≈ 28.6 µM); MIC (Escherichia coli; [18]): 0.25 µg/mL (≈ 0.448 µM); MIC (Escherichia coli; [19]): 2 µg/mL (≈ 3.58 µM); MIC (Escherichia coli; [20]): 8 µg/mL (≈ 14.3 µM); MIC (Serratia marcescens; [21]): > 128 µg/mL; MIC (Serratia marcescens; [22]): 32 µg/mL (≈ 57.3 µM) |
| CO/N=C(\C(=O)N[C@@H]1C(=O)N2C(C(=O)O)=C(CSc3nnnn3Cc3nnnn3C)CS[C@H]12)c1csc(N)n1 [F] | 16 (≈ 27 µM) | > 128 | 32 (≈ 53.9 µM) | 1 (≈ 1.68 µM) | 0.5 (≈ 0.842 µM) | 0.5 (≈ 0.842 µM) | 0.25 (≈ 0.421 µM) | 32 (≈ 53.9 µM) | 32 (≈ 53.9 µM) | 32 (≈ 53.9 µM) | 0.03 (≈ 0.0505 µM) | 8 (≈ 13.5 µM) | 32 (≈ 53.9 µM) | 16 (≈ 27 µM) | 0.25 (≈ 0.421 µM) | 0.03 (≈ 0.0505 µM) | 0.25 (≈ 0.421 µM) | 4 (≈ 6.74 µM) | 0.06 (≈ 0.101 µM) | 0.015 (≈ 0.0253 µM) | MIC (Enterobacter aerogenes): 0.125 µg/mL (≈ 0.211 µM); Minimum Inhibitory Concentration (Enterobacter aerogenes; strain C32): .125 µg/mL; MIC (Proteus morganii): 0.125 µg/mL (≈ 0.211 µM); MIC (Shigella sonnei): 0.125 µg/mL (≈ 0.211 µM); MIC (Staphylococcus aureus; [14]): 8 µg/mL (≈ 13.5 µM); MIC (Staphylococcus aureus; [15]): 4 µg/mL (≈ 6.74 µM); MIC (Staphylococcus aureus; [16]): 2 µg/mL (≈ 3.37 µM); MIC (Staphylococcus aureus; [17]): > 128 µg/mL; MIC (Haemophilus influenzae): 0.125 µg/mL (≈ 0.211 µM); Minimum Inhibitory Concentration (Haemophilus influenzae; strain 251, resistant strain): .125 µg/mL; MIC [2]: 128 µg/mL (≈ 216 µM); MIC (Escherichia coli; [14]): 0.125 µg/mL (≈ 0.211 µM); MIC (Escherichia coli; [18]): 0.06 µg/mL (≈ 0.101 µM); MIC (Escherichia coli; [19]): 0.25 µg/mL (≈ 0.421 µM); MIC (Serratia marcescens; [14]): 0.125 µg/mL (≈ 0.211 µM); MIC (Serratia marcescens; [21]): 0.5 µg/mL (≈ 0.842 µM) |
| CCN1CCN(C(=O)N[C@@H](C(=O)N[C@@H]2C(=O)N3C(C(=O)O)=C(CSc4nnnn4Cc4nnn[nH]4)CS[C@H]23)c2ccc(O)cc2)C(=O)C1=O [D, 7-[α-(4-Ethylpiperazin-2,3-dione-1-ylcarbonylamino)-α-(4-hydroxyphenyl)acetamido]-3-[1-(1H-tetrazole-5-ylmethyl)-1H-tetrazole-5-ylthiomethyl]-3-cephem-4-carboxylic acid] | 64 (≈ 89.7 µM) | 128 (≈ 179 µM) | 128 (≈ 179 µM) | 2 (≈ 2.8 µM) | 2 (≈ 2.8 µM) | 4 (≈ 5.6 µM) | 2 (≈ 2.8 µM) | 8 (≈ 11.2 µM) | 4 (≈ 5.6 µM) | 8 (≈ 11.2 µM) | 0.5 (≈ 0.701 µM) | 8 (≈ 11.2 µM) | 32 (≈ 44.8 µM) | 32 (≈ 44.8 µM) | 8 (≈ 11.2 µM) | 4 (≈ 5.6 µM) | 0.5 (≈ 0.701 µM) | > 128 | 1 (≈ 1.4 µM) | 0.25 (≈ 0.35 µM) | MIC (Enterobacter aerogenes; strain C32): 2 µg/mL (≈ 2.8 µM); MIC (Enterobacter aerogenes; strain X68): 0.25 µg/mL (≈ 0.35 µM); MIC (Proteus morganii; strain PR15): 1 µg/mL (≈ 1.4 µM); MIC (Shigella sonnei): 0.25 µg/mL (≈ 0.35 µM); MIC (Staphylococcus aureus; [14]): 32 µg/mL (≈ 44.8 µM); MIC (Staphylococcus aureus; [15]): 16 µg/mL (≈ 22.4 µM); MIC (Staphylococcus aureus; [16]): 4 µg/mL (≈ 5.6 µM); MIC (Staphylococcus aureus; [17]): > 128 µg/mL; MIC (Haemophilus influenzae; strain 251, resistant strain): 0.015 µg/mL (≈ 0.021 µM); MIC (Haemophilus influenzae; strain Brun, sensitive strain): 0.015 µg/mL (≈ 0.021 µM); MIC [2]: 32 µg/mL (≈ 44.8 µM); MIC (Escherichia coli; [18]): 0.125 µg/mL (≈ 0.175 µM); MIC (Escherichia coli; [19]): 2 µg/mL (≈ 2.8 µM); MIC (Escherichia coli; [20]): 16 µg/mL (≈ 22.4 µM); MIC (Serratia marcescens; [21]): 4 µg/mL (≈ 5.6 µM); MIC (Serratia marcescens; [22]): 1 µg/mL (≈ 1.4 µM) |
